Patent US20250145665A1, “MACROCYCLIC PEPTIDES USEFUL AS MODULATORS OF TNF ALPHA” (Bristol-Myers Squibb Company, priority 2023, published 2025)
pIC50: −log10 of the molar value. Starred links: 1 amine or outer side, 2 acyl side, 3 side chain; linkers in the order of their positions; H or OH if unused. Positions of bridges follow the written chain, without caps; N, C: chain ends. Non-standard residues stand in square brackets, D forms with d. Residues, ends and D or L forms follow the SMILES beside them. *: point of attachment. Bip(4'-NHCO-C6H4-4-CH2COOH) = N[C@@H](Cc1ccc(-c2ccc(NC(=O)c3ccc(CC(=O)O)cc3)cc2)cc1)C(=O)O; X84 = O=C(Oc1cccc(-c2ccc(C[C@H](N[*:1])C(=O)[*:2])cc2)c1)c1csc(-c2ccncc2)n1; dArg(Nω-CH2C6H4-3-CH2Gua) = N=C(N)NCc1cccc(CNC(=N)NCCC[C@@H](N)C(=O)O)c1; Bip(4'-NH) = O=C([C@H](Cc1ccc(-c2ccc(N[*:3])cc2)cc1)N[*:1])[*:2]; dArg(ω-(3-HO-benzyl)) = N=C(NCCC[C@@H](N)C(=O)O)NCc1cccc(O)c1; Bip(4'-COOH) = N[C@@H](Cc1ccc(-c2ccc(C(=O)O)cc2)cc1)C(=O)O; Bip(4'-NHAc) = CC(=O)Nc1ccc(-c2ccc(C[C@H](N)C(=O)O)cc2)cc1; Indole3carbonyl(1-CH2COOH) = O=C(O)Cn1cc(C(=O)*)c2ccccc21; Pro(trans-4-Ph) = O=C(O)[C@@H]1C[C@@H](c2ccccc2)CN1; dArg(ω-Bn) = N=C(NCCC[C@@H](N)C(=O)O)NCc1ccccc1; Ala(morpholin-4-yl) = N[C@@H](CN1CCOCC1)C(=O)O; Benzoyl(3-OCH2COOH) = O=C(O)COc1cccc(C(=O)*)c1; Bip = N[C@@H](Cc1ccc(-c2ccccc2)cc1)C(=O)O; Val(3-OH) = CC(C)(O)[C@H](N)C(=O)O; Hyp = O=C(O)[C@@H]1C[C@@H](O)CN1; hArg = N=C(N)NCCCC[C@H](N)C(=O)O; 2Pal = N[C@@H](Cc1ccccn1)C(=O)O; 2Thi = N[C@@H](Cc1cccs1)C(=O)O; Cha = N[C@@H](CC1CCCCC1)C(=O)O; Tle = CC(C)(C)[C@H](N)C(=O)O; Pip = O=C(O)[C@@H]1CCCCN1; Sar = CNCC(=O)O

molecular target: TNFα (Homo sapiens, UniProt P01375); test: TNF-Induced HEK-Blue Assay; assay type: cell-based; conditions: not given
Sequence (P01375 77-233 limits assumed): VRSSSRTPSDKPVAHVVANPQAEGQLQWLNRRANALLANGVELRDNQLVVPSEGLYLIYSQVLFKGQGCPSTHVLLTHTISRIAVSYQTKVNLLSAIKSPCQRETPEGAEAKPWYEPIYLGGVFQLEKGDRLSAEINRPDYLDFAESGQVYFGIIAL

| SMILES | pIC50 |
| --- | --- |
| CC(C)C[C@@H]1NC(=O)[C@H](CCCNC(=N)N)NC(=O)[C@H](C(C)C)NC(=O)[C@@H]2CCCN2C(=O)[C@H](C(C)C)NC(=O)[C@@H](CCCNC(=N)NCc2cccc(CNC(=N)N)c2)NC(=O)[C@H](CC(=O)O)NC(=O)[C@@H]2CCCN2C(=O)CN(C)C(=O)[C@H](Cc2ccc(-c3ccc(NC(=O)c4cn(CC(=O)O)c5ccccc45)cc3)cc2)NC(=O)[C@H](Cc2ccc(-c3ccccc3)cc2)NC(=O)[C@H](CN2CCOCC2)NC(=O)CSC[C@@H](C(=O)NCC(N)=O)NC1=O [Example 569] ({CH2CO}-[Ala(morpholin-4-yl)][Bip][Bip(4'-NH)](Indole3carbonyl(1-CH2COOH))[Sar]PD[dArg(Nω-CH2C6H4-3-CH2Gua)]VPVRLCG-NH2; thioether N-13) | > 7.30 |

same assay, conditions: HEK-Blue-CD40L cells, NF-kB-driven secreted alkaline phosphatase reporter; TNFα 0.5 ng/ml; 18 h; read-out: TNF induced HEK-Blue assay IC50 value

| pIC50 | SMILES |
| --- | --- |
| > 7.30 | CC(C)C[C@@H]1NC(=O)[C@H](CCCCNC(=N)N)NC(=O)[C@H](C(C)C)NC(=O)[C@@H]2CCCN2C(=O)[C@H](C(C)C)NC(=O)[C@@H](CCCNC(=N)N)NC(=O)[C@H](CC(=O)O)NC(=O)[C@H](Cc2ccc(O)cc2)NC(=O)CN(C)C(=O)[C@H](Cc2ccc(-c3ccccc3)cc2)NC(=O)[C@H](Cc2ccc(-c3ccccc3)cc2)NC(=O)[C@H](CN2CCOCC2)NC(=O)CSC[C@@H](C(=O)NCC(N)=O)NC1=O [Example 159] ({CH2CO}-[Ala(morpholin-4-yl)][Bip][Bip][Sar]YD[dR]VPV[hArg]LCG-NH2; thioether N-13) |
| 5.70 to 6.70 | CC(C)C[C@@H]1NC(=O)[C@H](Cc2ccc(O)cc2)NC(=O)[C@H](C(C)C)NC(=O)[C@@H]2CCCN2C(=O)[C@H](C(C)C)NC(=O)[C@H](CCCNC(=N)N)NC(=O)[C@H](CC(=O)O)NC(=O)[C@@H]2C[C@@H](c3ccccc3)CN2C(=O)CN(C)C(=O)[C@H](Cc2ccc(-c3ccccc3)cc2)NC(=O)[C@H](Cc2ccc(-c3ccccc3)cc2)NC(=O)[C@H](CN2CCOCC2)NC(=O)CSC[C@@H](C(=O)NCC(N)=O)NC1=O [Example 95] ({CH2CO}-[Ala(morpholin-4-yl)][Bip][Bip][Sar][Pro(trans-4-Ph)]DRVPVYLCG-NH2; thioether N-13) |
| > 7.30 | CC(C)C[C@@H]1NC(=O)[C@H](CCCNC(=N)N)NC(=O)[C@H](C(C)C)NC(=O)[C@@H]2CCCN2C(=O)[C@H](C(C)C)NC(=O)[C@@H](CCCNC(=N)NCc2cccc(O)c2)NC(=O)[C@H](CC(=O)O)NC(=O)[C@@H]2CCCN2C(=O)CN(C)C(=O)[C@H](Cc2ccc(-c3ccc(NC(=O)c4cccc(OCC(=O)O)c4)cc3)cc2)NC(=O)[C@H](Cc2ccc(-c3ccccc3)cc2)NC(=O)[C@H](CN2CCOCC2)NC(=O)CSC[C@@H](C(=O)NCC(N)=O)NC1=O [Example 568] ({CH2CO}-[Ala(morpholin-4-yl)][Bip][Bip(4'-NH)](Benzoyl(3-OCH2COOH))[Sar]PD[dArg(ω-(3-HO-benzyl))]VPVRLCG-NH2; thioether N-13) |
| 5.70 to 6.70 | CC(C)C[C@@H]1NC(=O)[C@H](CCCNC(=N)N)NC(=O)[C@H](C(C)C)NC(=O)[C@@H]2CCCN2C(=O)[C@H](C(C)C)NC(=O)[C@@H](CCCNC(=N)N)NC(=O)[C@H](CC(=O)O)NC(=O)[C@@H]2CCCN2C(=O)CN(C)C(=O)[C@H](Cc2ccc(-c3cccc(OC(=O)c4csc(-c5ccncc5)n4)c3)cc2)NC(=O)[C@H](Cc2ccc(-c3ccccc3)cc2)NC(=O)[C@H](CN2CCOCC2)NC(=O)CSC[C@@H](C(=O)NCC(N)=O)NC1=O [Example 332] ({CH2CO}-[Ala(morpholin-4-yl)][Bip][X84][Sar]PD[dR]VPVRLCG-NH2; thioether N-13) |
| 5.70 to 6.70 | CC(C)C[C@@H]1NC(=O)[C@H](CCCNC(=N)N)NC(=O)[C@H](Cc2ccccc2)NC(=O)[C@@H]2CCCN2C(=O)[C@H](C(C)C)NC(=O)[C@@H](CCCNC(=N)N)NC(=O)[C@H](CC(=O)O)NC(=O)[C@@H]2CCCN2C(=O)CN(C)C(=O)[C@H](Cc2ccc(-c3ccccc3)cc2)NC(=O)[C@H](Cc2ccc(-c3ccccc3)cc2)NC(=O)[C@H](CN2CCOCC2)NC(=O)CSC[C@@H](C(=O)NCC(N)=O)NC1=O [Example 104] ({CH2CO}-[Ala(morpholin-4-yl)][Bip][Bip][Sar]PD[dR]VPFRLCG-NH2; thioether N-13) |
| 6.70 to 7.30 | CC[C@H](C)[C@@H]1NC(=O)[C@@H](CCCNC(=N)N)NC(=O)[C@H](CC(=O)O)NC(=O)[C@H](Cc2ccc(O)cc2)NC(=O)CN(C)C(=O)[C@H](Cc2ccc(-c3ccc(NC(C)=O)cc3)cc2)NC(=O)[C@H](Cc2ccc(-c3ccccc3)cc2)NC(=O)[C@H](C(C)(C)C)NC(=O)CSC[C@@H](C(=O)NCC(N)=O)NC(=O)[C@H](CC(C)C)NC(=O)[C@H](Cc2ccccc2)NC(=O)[C@H](C(C)C)NC(=O)[C@@H]2CCCN2C1=O [Example 264] ({CH2CO}-[Tle][Bip][Bip(4'-NHAc)][Sar]YD[dR]IPVFLCG-NH2; thioether N-13) |

Further lines, the molecule ahead of its results:

| SMILES | pIC50 |
| --- | --- |
| CC(=O)Nc1ccc(-c2ccc(C[C@@H]3NC(=O)[C@H](Cc4ccc(-c5ccc(C(=O)O)cc5)cc4)NC(=O)[C@H](CN4CCOCC4)NC(=O)CSC[C@@H](C(=O)NCC(N)=O)NC(=O)[C@H](CC(C)C)NC(=O)[C@H](Cc4ccccc4)NC(=O)[C@H](C(C)C)NC(=O)[C@@H]4CCCN4C(=O)[C@H](C(C)C)NC(=O)[C@@H](CCCNC(=N)N)NC(=O)[C@H](CC(=O)O)NC(=O)[C@H](Cc4ccc(O)cc4)NC(=O)CN(C)C3=O)cc2)cc1 [Example 287] ({CH2CO}-[Ala(morpholin-4-yl)][Bip(4'-COOH)][Bip(4'-NHAc)][Sar]YD[dR]VPVFLCG-NH2; thioether N-13) | > 7.30 |
| CC[C@H](C)[C@@H]1NC(=O)[C@@H](CCCNC(=N)NCc2ccccc2)NC(=O)[C@H](CC(=O)O)NC(=O)[C@H](Cc2cnc[nH]2)NC(=O)CN(C)C(=O)[C@H](Cc2ccc(-c3ccc(NC(=O)c4ccc(CC(=O)O)cc4)cc3)cc2)NC(=O)[C@H](Cc2ccc(-c3ccc(C(=O)O)cc3)cc2)NC(=O)[C@H](CC2CCCCC2)NC(=O)CSC[C@@H](C(=O)NCC(N)=O)NC(=O)[C@H](CC(C)C)NC(=O)[C@H](Cc2cnc[nH]2)NC(=O)[C@H](C(C)C)NC(=O)[C@@H]2CCCN2C1=O [Example 584] ({CH2CO}-[Cha][Bip(4'-COOH)][Bip(4'-NHCO-C6H4-4-CH2COOH)][Sar]HD[dArg(ω-Bn)]IPVHLCG-NH2; thioether N-13) | 6.70 to 7.30 |
| CC(C)C[C@@H]1NC(=O)[C@H](CCCNC(=N)N)NC(=O)[C@H](C(C)C)NC(=O)[C@@H]2CCCN2C(=O)[C@H](C(C)C)NC(=O)[C@@H](CCCNC(=N)N)NC(=O)[C@H](CC(=O)O)NC(=O)[C@H](Cc2cnc[nH]2)NC(=O)CN(C)C(=O)[C@H](Cc2ccc(-c3ccccc3)cc2)NC(=O)[C@H](Cc2ccc(-c3ccccc3)cc2)NC(=O)[C@H](CN2CCOCC2)NC(=O)CSC[C@@H](C(=O)NCC(N)=O)NC1=O [Example 229] ({CH2CO}-[Ala(morpholin-4-yl)][Bip][Bip][Sar]HD[dR]VPVRLCG-NH2; thioether N-13) | 6.70 to 7.30 |
| CC(=O)Nc1ccc(-c2ccc(C[C@@H]3NC(=O)[C@H](Cc4ccc(-c5ccccc5)cc4)NC(=O)[C@H](CC4CCCCC4)NC(=O)CSC[C@@H](C(=O)NCC(N)=O)NC(=O)[C@H](CC(C)C)NC(=O)[C@H](Cc4cccs4)NC(=O)[C@H](C(C)C)NC(=O)[C@@H]4CCCN4C(=O)[C@H](C(C)C)NC(=O)[C@@H](CCCNC(=N)N)NC(=O)[C@H](CC(=O)O)NC(=O)[C@H](Cc4ccccn4)NC(=O)CN(C)C3=O)cc2)cc1 [Example 235] ({CH2CO}-[Cha][Bip][Bip(4'-NHAc)][Sar][2Pal]D[dR]VPV[2Thi]LCG-NH2; thioether N-13) | 5.70 to 6.70 |
| CC(=O)Nc1ccc(-c2ccc(C[C@@H]3NC(=O)[C@H](Cc4ccc(-c5ccccc5)cc4)NC(=O)[C@H](CN4CCOCC4)NC(=O)CSC[C@@H](C(=O)NCC(N)=O)NC(=O)[C@H](CC(C)C)NC(=O)[C@H](Cc4ccc(O)cc4)NC(=O)[C@H](C(C)C)NC(=O)[C@@H]4CCCN4C(=O)[C@H](C(C)C)NC(=O)[C@@H](CCCNC(=N)N)NC(=O)[C@H](CC(=O)O)NC(=O)[C@@H]4CCCCN4C(=O)CN(C)C3=O)cc2)cc1 [Example 182] ({CH2CO}-[Ala(morpholin-4-yl)][Bip][Bip(4'-NHAc)][Sar][Pip]D[dR]VPVYLCG-NH2; thioether N-13) | 6.70 to 7.30 |
| CC(=O)Nc1ccc(-c2ccc(C[C@@H]3NC(=O)[C@H](Cc4ccc(-c5ccccc5)cc4)NC(=O)[C@H](CN4CCOCC4)NC(=O)CSC[C@@H](C(=O)NCC(N)=O)NC(=O)[C@H](CC(C)C)NC(=O)[C@H](CCCNC(=N)N)NC(=O)[C@H](C(C)C)NC(=O)[C@@H]4CCCN4C(=O)[C@H](C(C)C)NC(=O)[C@@H](CCCNC(=N)N)NC(=O)[C@H](CC(=O)O)NC(=O)[C@@H]4CCCN4C(=O)CN(C)C3=O)cc2)cc1 [Example 128] ({CH2CO}-[Ala(morpholin-4-yl)][Bip][Bip(4'-NHAc)][Sar]PD[dR]VPVRLCG-NH2; thioether N-13) | > 7.30 |
| CC(C)C[C@@H]1NC(=O)[C@H](CCCNC(=N)N)NC(=O)[C@H](C(C)C)NC(=O)[C@@H]2CCCN2C(=O)[C@H](C(C)C)NC(=O)[C@H](CCCNC(=N)N)NC(=O)[C@H](CC(=O)O)NC(=O)[C@H](Cc2ccc(O)cc2)NC(=O)CN(C)C(=O)[C@H](Cc2ccc(-c3ccccc3)cc2)NC(=O)[C@H](Cc2ccc(-c3ccccc3)cc2)NC(=O)[C@H](C(C)(C)O)NC(=O)CSC[C@@H](C(=O)NCC(N)=O)NC1=O [Example 65] ({CH2CO}-[Val(3-OH)][Bip][Bip][Sar]YDRVPVRLCG-NH2; thioether N-13) | 6.70 to 7.30 |
| CC(C)C[C@@H]1NC(=O)[C@H](CCCNC(=N)N)NC(=O)[C@H](C(C)C)NC(=O)[C@@H]2C[C@@H](O)CN2C(=O)[C@H](C(C)C)NC(=O)[C@H](CCCNC(=N)N)NC(=O)[C@H](CC(=O)O)NC(=O)[C@@H]2CCCN2C(=O)CN(C)C(=O)[C@H](Cc2ccc(-c3ccccc3)cc2)NC(=O)[C@H](Cc2ccc(-c3ccccc3)cc2)NC(=O)[C@H](CN2CCOCC2)NC(=O)CSC[C@@H](C(=O)NCC(N)=O)NC1=O [Example 70] ({CH2CO}-[Ala(morpholin-4-yl)][Bip][Bip][Sar]PDRV[Hyp]VRLCG-NH2; thioether N-13) | 5.70 to 6.70 |
